Data as given in patent US5486516A, “Furopyrimidine derivatives” (DowElanco, priority 1993, dated 1996).

What was measured:
[1] = tested on: southern armyworm (Spodopetra eridania Cramer); experiment: Mite/insect screen, Southern armyworm; assay type: in vivo; conditions: Spodoptera eridania, sprayed leaves, read-out: SAW results (percent mortality); for mortality at 200 ppm: rate 200 ppm; for mortality at 400 ppm: rate 400 ppm
Protocol: (§1) The compounds of Examples were tested for miticidal and insecticidal activity in the following mite/insect screen.
(§2) Each test compound was formulated by dissolving the compound in acetone/alcohol (50:50) mixture containing 23 g of "TOXIMUL R" (sulfonate/nonionic emulsifier blend) and 13 g of "TOXIMUL S" (sulfonate/nonionic emulsifier blend) per liter. These mixtures were then diluted with water to give the indicated concentrations.
(§3) Twospotted spider mites (Tetranychus urticae Koch) and melon aphids (Aphis gossvpii Glover) were introduced on squash cotyledons and allowed to establish on both leaf surfaces. Other plants in the same treatment pot were left uninfested. The leaves were then sprayed with 5 ml of test solution using a DeVilbiss atomizing sprayer at 10 psi. Both surfaces of the leaves were covered until runoff, and then allowed to dry for one hour. Two uninfested leaves were then excised and placed into a Petri dish containing larval southern armyworm (Spodopetra eridania Cramer).
(§4) After standard exposure periods, percent mortality and phytotoxicity were evaluated. […] The following abbreviations are used in Table 3:
SAW refers to Southern armyworm

[2] = tested on: Southern corn rootworm (Diabrotica undecimpuctata howardi Barber); experiment: Mite/insect screen, corn rootworm; assay type: in vivo; conditions: Diabrotica, soil, read-out: CRW results (percent mortality); for mortality at 12 ppm: CRW rate 12.00 ppm; for mortality at 24 ppm: CRW rate 24.00 ppm
Protocol: as §1, §2
Activity on Southern corn rootworm (Diabrotica undecimpuctata howardi Barber) was evaluated by adding two ml of tap water, a presoaked corn seed, and 15 g of dry sandy soil to a one ounce plastic container. The soil was treated with 1 mL of test solution containing a predetermined concentration of test compound. After six to 12 hours of drying, five 2-3 instar corn rootworm larvae were added to the individual cups, which were then capped and held at 23° C.
as §4
CRW refers to corn rootworm

[3] = tested on: Twospotted spider mites (Tetranychus urticae Koch); experiment: Mite/insect screen, twospotted spider mites; assay type: in vivo; conditions: Tetranychus urticae, sprayed leaves, read-out: SM results (percent mortality); for mortality at 200 ppm: rate 200 ppm; for mortality at 400 ppm: rate 400 ppm
Protocol: as §1, §2, §3, §4
SM refers to twospotted spider mites

[4] = tested on: Pyricularia oryzae (rice blast); experiment: whole plant or invertebrate; assay type: in vivo; conditions: foliar, read-out: RICE BLAST control rating
[5] = tested on: melon aphids (Aphis gossvpii Glover); experiment: Mite/insect screen, melon aphids; assay type: in vivo; conditions: Aphis, sprayed leaves, read-out: MA results (percent mortality); for mortality at 200 ppm: rate 200 ppm; for mortality at 400 ppm: rate 400 ppm
Protocol: as §1, §2, §3, §4
MA refers to melon aphids.

[6] = tested on: Pseudoperonospora cubensis (downy mildew); experiment: Plant pathology screen (Test 1), downy mildew on squash; conditions: foliar, read-out: DOWN MDEW control rating
Protocol: (§5) The test compounds were formulated for application by dissolving 50 mg of the compound into 1.25 ml of solvent. The solvent was prepared by mixing 50 ml of "Tween 20" (polyoxyethylene (20) sorbitan monolaurate emulsifier) with 475 ml of acetone and 475 ml of ethanol. The solvent/compound solution was diluted to 125 ml with deionized water. The resulting formulation contains 400 ppm test chemical. Lower concentrations were obtained by serial dilution with the solvent-surfactant mixture.
The formulated test compounds were applied by foliar spray. The following plant pathogens and their corresponding plants were employed.
(§6) The formulated technical compounds were sprayed on all foliar surfaces of the host plants (or cut berry) to past run-off. Single pots of each host plant were placed on raised, revolving pedestals in a fume hood. Test solutions were sprayed on all foliar surfaces. All treatments were allowed to dry and the plants were inoculated with the appropriate pathogens within 2-4 hours.
(§7) The effectiveness of test compounds in controlling disease was rated using the following scale.

[7] = tested on: Erysiphe graminis tritici (powdery mildew); experiment: Plant pathology screen (Test 1), powdery mildew on wheat; conditions: Blumeria graminis, in Triticum aestivum, foliar, read-out: POWD MDEW control rating
Protocol: as §5
The formulated test compounds were applied by foliar spray.
as §6, §7

[8] = tested on: Puccinia recondita tritici (leaf rust); experiment: Plant pathology screen (Test 1), leaf rust on wheat; conditions: in Triticum aestivum, foliar, read-out: LEAF RUST control rating

Cc1oc2ncnc(Oc3ccc(OC(F)(F)F)cc3)c2c1C [Example 32, 5,6-dimethyl-4-[4-(trifluoromethoxy)phenoxy]furo[2,3-d]pyrimidine]
mortality at 200 ppm [1]: 0%
mortality at 400 ppm [1]: 0%
mortality at 12 ppm [2]: 0%
mortality at 24 ppm [2]: 0%
mortality at 200 ppm [3]: 0%
mortality at 400 ppm [3]: 0%
pest or weed control at 400 µg/mL [4]: 0 to 19%
mortality at 200 ppm [5]: 0%
mortality at 400 ppm [5]: 0%
pest or weed control at 400 µg/mL [6]: 0 to 19%
pest or weed control at 400 µg/mL [7]: 0 to 19%
pest or weed control at 400 µg/mL [8]: 0 to 19%

COc1cccc(CCNc2ncnc3occ(C)c23)c1 [Example 33, 5-methyl-N-[2-(3-methoxyphenyl)ethyl]furo[2,3-d]pyrimidin-4-amine]
mortality at 200 ppm [1]: 0%
mortality at 400 ppm [1]: 0%
mortality at 12 ppm [2]: 0%
mortality at 24 ppm [2]: 0%
mortality at 200 ppm [3]: 80%
mortality at 400 ppm [3]: 0%
pest or weed control at 400 µg/mL [4]: 20 to 89%
mortality at 200 ppm [5]: 40%
mortality at 400 ppm [5]: 0%
pest or weed control at 400 µg/mL [6]: 90 to 100%
pest or weed control at 400 µg/mL [7]: 90 to 100%
pest or weed control at 400 µg/mL [8]: 90 to 100%

Fc1ccc(Oc2ncnc3oc4c(c23)CCCC4)cc1 [Example 34, 4-(4-fluorophenyloxy)-5,6,7,8-tetrahydrobenzofuro[2,3-d]pyrimidine]
mortality at 200 ppm [1]: 0%
mortality at 400 ppm [1]: 0%
mortality at 12 ppm [2]: 0%
mortality at 24 ppm [2]: 0%
mortality at 200 ppm [3]: 0%
mortality at 400 ppm [3]: 0%
pest or weed control at 400 µg/mL [4]: 0 to 19%
mortality at 200 ppm [5]: 0%
mortality at 400 ppm [5]: 0%
pest or weed control at 400 µg/mL [6]: 0 to 19%
pest or weed control at 400 µg/mL [7]: 0 to 19%
pest or weed control at 400 µg/mL [8]: 20 to 89%

COc1ccccc1CCNc1ncnc2occ(C)c12 [Example 35, 5-methyl-N-[2,(2-methoxyphenyl)ethyl]furo[2,3-d]pyrimidin-4-amine]
mortality at 200 ppm [1]: 0%
mortality at 400 ppm [1]: 0%
mortality at 12 ppm [2]: 0%
mortality at 24 ppm [2]: 0%
mortality at 200 ppm [3]: 0%
mortality at 400 ppm [3]: 0%
pest or weed control at 400 µg/mL [4]: 0 to 19%
mortality at 200 ppm [5]: 0%
mortality at 400 ppm [5]: 30%
pest or weed control at 400 µg/mL [6]: 20 to 89%
pest or weed control at 400 µg/mL [7]: 0 to 19%
pest or weed control at 400 µg/mL [8]: 90 to 100%

Cc1oc2ncnc(Oc3ccc(C#N)cc3)c2c1C [Example 36, 4-[(5,6-dimethylfuro[2,3-d]pyrimidin-4-yl)oxy]benzonitrile]
mortality at 200 ppm [1]: 0%
mortality at 400 ppm [1]: 0%
mortality at 12 ppm [2]: 0%
mortality at 24 ppm [2]: 0%
mortality at 200 ppm [3]: 0%
mortality at 400 ppm [3]: 0%
pest or weed control at 400 µg/mL [4]: 0 to 19%
mortality at 200 ppm [5]: 0%
mortality at 400 ppm [5]: 0%
pest or weed control at 400 µg/mL [6]: 0 to 19%
pest or weed control at 400 µg/mL [7]: 0 to 19%
pest or weed control at 400 µg/mL [8]: 0 to 19%

Cc1oc2ncnc(Oc3ccccc3C#N)c2c1C [Example 37, 2-[(5,6-dimethylfuro[2,3-d]pyrimidin-4-yl)oxy]benzonitrile]
mortality at 200 ppm [1]: 0%
mortality at 400 ppm [1]: 0%
mortality at 12 ppm [2]: 0%
mortality at 24 ppm [2]: 0%
mortality at 200 ppm [3]: 90%
mortality at 400 ppm [3]: 0%
pest or weed control at 400 µg/mL [4]: 0 to 19%
mortality at 200 ppm [5]: 0%
mortality at 400 ppm [5]: 0%
pest or weed control at 400 µg/mL [6]: 20 to 89%
pest or weed control at 400 µg/mL [7]: 0 to 19%
pest or weed control at 400 µg/mL [8]: 0 to 19%

Cc1oc2ncnc(OCCc3ccc(OCC(F)(F)F)cc3)c2c1C [Example 78]
mortality at 200 ppm [1]: 0%
mortality at 400 ppm [1]: 100%
mortality at 12 ppm [2]: 0%
mortality at 24 ppm [2]: 0%
mortality at 200 ppm [3]: 20%
mortality at 400 ppm [3]: 0%
mortality at 200 ppm [5]: 90%
mortality at 400 ppm [5]: 100%
